From ChEMBL document CHEMBL1201862, “PubChem BioAssay data set” (2004)
Values belong to the molecule of their own block, whether it stands above or below them. Calls of active or inactive are those of the source.

Tests used:
[1] = inhibition of ADAM10 peptide cleavage – biochemical, FRET peptide substrate, recombinant human ADAM10, selectivity assay for ADAM17 exosite inhibitor project, dose response (AID 743259);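 note: ADAM10 enzyme cleaving a FRET peptide substrate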
[2] = biological target: Disintegrin and metalloproteinase domain-containing protein 17 (Homo sapiens, UniProt P78536); test: exosite inhibitors of ADAM17, dose response, biochemical (AID 743260)
[3] = biological target: Peroxisome proliferator-activated receptor gamma/Nuclear receptor coactivator 3 (Homo sapiens, UniProt P37231); test: TR-FRET dose response biochemical High Throughput Screening assay for agonists of the steroid receptor coactivator 3 (SRC-3) recruitment by the peroxisome proliferator-activated receptor gamma (PPAR gamma): non-selective agonists. [Related pubchem assays: 1301 (Confirmation screen.), 1048 (Primary screen.)]; format: functional
[4] = biological target: Peroxisome proliferator-activated receptor gamma/Nuclear receptor coactivator 2 (Homo sapiens, UniProt P37231); test: (§1) TR-FRET dose response biochemical High Throughput Screening assay for agonists of the steroid receptor coactivator 2 (SRC-2) recruitment by the peroxisome proliferator-activated receptor gamma (PPAR gamma): non-selective agonists. [Related pubchem assays: 1297, 1032 ]; format: functional
[5] = biological target: Peroxisome proliferator-activated receptor gamma/Nuclear receptor coactivator 1 (Homo sapiens, UniProt P37231); test: as §1, with “1 (SRC-1)” for “2 (SRC-2)”, “assays (depositor defined):AID1300, AID1808, AID504735, AID631]” for “assays: 1297, 1032 ]”; format: protein assay
[6] = biological target: Mitogen-activated protein kinase 10 (Homo sapiens, UniProt P53779); test: Dose response biochemical screening assay for inhibitors of c-Jun N-Terminal Kinase 3 (JNK3). [Related pubchem assays: 746 ]
[7] = viability loss in HEK293 kidney cells – cell-based, cherry-picks, set 5, cytotoxicity control, dose response (AID 1053117); format: functional
[8] = toxicity to human hepatoma HepG2 cells – cell-based, cherry-picked samples, cytotoxicity control, dose response (AID 1159577); format: functional
[9] = P. falciparum Dd2 growth inhibitors, dose response, SYBR Green, cherry-picked samples (AID 1159567); format: functional, cell-based
[10] = A549 cell cytotoxicity, dose response, cytotoxicity control, plate reader, cherry-pick, antagonist series (AID 743412); format: functional, cell-based
[11] = toxicity toward HepG2 liver cells – cell-based, plate reader, cherry-pick, antagonist series, cytotoxicity control, dose response (AID 743416); format: functional
[12] = blockers of bursicon-stimulated LGR2 cAMP reporter – cell-based, HEK293, CRE-luciferase reporter, cherry pick, set 2, dose response (AID 743343); format: functional;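 note: transfected cells were stimulated with diluted bursicon conditioned medium after compound addition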
[13] = blockade of melanocortin 4 receptor signaling – cell-based, plate reader, cherry pick, counter-screen for LGR2 antagonist project, dose response (AID 743444); format: functional;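 note: transfected HEK 293 cells stimulated with alpha-MSH peptide; potency of inhibitors of the alpha-MSH evoked signal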
[14] = growth inhibition of PfATP4-mutant resistant parasites – NITD609-resistant line, SYBR Green, dry powder, dose response (AID 1159571); format: functional, cell-based;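 note: parasites synchronized at ring stage by sorbitol before testing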
[15] = growth inhibition of yeast DHODH-expressing 3D7 parasites – SYBR Green, dry powder samples, dose response (AID 1159570); format: functional, cell-based;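 note: parasite growth measured after 72 hours of compound exposure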
[16] = toxicity to human HepG2 hepatoma cells – cell-based, plate reader, dry powder samples, cytotoxicity control, dose response (AID 1159569); format: functional;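 note: inhibitor potency with signal falling toward the positive control level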
[17] = Dd2 malaria parasite growth inhibition potency – SYBR Green, dry powder samples, dose response (AID 1159566); format: functional, cell-based;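 note: potency for growth inhibition with lower SYBR green DNA signal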
[18] = T. cruzi growth inhibition in host cells, dose response, cell-based, plate reader, dry powder, set 2 (AID 652275); format: functional
[19] = loss of viability in HepG2 cells – cell-based, CellTiter-Glo, cherry-picked, cytotoxicity control for Shn3 inhibitor project, dose response (AID 624134); format: functional
[20] = biological target: T1, COUP transcription factor 2 (Homo sapiens, UniProt P24468); test: Luminescence-based cell-based high throughput dose response assay to identify inhibitors of COUP-TFII (NR2F2).; format: functional;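 note: HEK293 cells transiently cotransfected with COUP-TFII expression vector and reporter; luciferase reporter luminescence driven by COUP-TFII from the pX2-168 reporter plasmid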
T1 sequence (P24468 whole entry): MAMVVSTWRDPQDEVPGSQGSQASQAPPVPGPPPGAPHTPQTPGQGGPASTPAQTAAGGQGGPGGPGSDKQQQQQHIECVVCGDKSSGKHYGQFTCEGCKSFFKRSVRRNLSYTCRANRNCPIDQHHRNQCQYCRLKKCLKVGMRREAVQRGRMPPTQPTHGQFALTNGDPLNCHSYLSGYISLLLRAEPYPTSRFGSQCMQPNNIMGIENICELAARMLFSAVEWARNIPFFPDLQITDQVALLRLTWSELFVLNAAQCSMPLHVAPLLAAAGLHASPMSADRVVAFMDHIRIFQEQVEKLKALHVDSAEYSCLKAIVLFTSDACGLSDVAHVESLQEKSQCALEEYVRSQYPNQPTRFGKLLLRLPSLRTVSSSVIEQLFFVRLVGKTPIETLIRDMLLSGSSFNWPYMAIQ

[21] = HEK-293T viability loss after treatment – luminescence, T-cell screen hits, cytotoxicity control for TCR NF-kB inhibitor project, dose response (AID 489026); format: functional, cell-based;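 note: cells exposed to compound about 14 hours before the viability readout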
[22] = reduction of Shn3 3'UTR-driven luciferase in osteoblasts – cell-based, Clone20 osteoblasts, firefly luciferase, cherry-picked, dose response (AID 624132); format: functional;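 note: firefly luciferase luminescence from reporter carrying the Shn3 3'UTR in osteoblasts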
[23] = non-specific 3'UTR reporter inhibition in Clone20-Shn3RL – cell-based, Renilla luciferase, cherry-picked, counter-screen for Shn3 inhibitor project, dose response (AID 624133); format: functional
INS1 = test: INS-1E survival protection against cytokine death – cell-based, luminescence, retest, dose response (AID 449756); format: functional; settings: Rattus norvegicus;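 note: cell death triggered by IL-1 beta plus TNF-alpha plus IFN-gamma mixture; protective hits raise ATP signal compared with cytokine alone wells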
[24] = OVCAR8 cell viability loss – plate reader, dry powder samples, PAX8 project, dose response (AID 743197); format: functional, cell-based; settings: OVCAR-8
Paired box protein Pax-8 = Paired box protein Pax-8 (Homo sapiens, UniProt Q06710); test: PAX8 transcriptional activity inhibition in RMG-I – RMG-I cells, luciferase, cherry-pick, dose response (AID 687027); format: functional, cell-based;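 note: luciferase reporter driven by Pax8 target thyroperoxidase promoter measured by SteadyGlo luminescence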
Sequence of Paired box protein Pax-8 (Q06710 whole entry): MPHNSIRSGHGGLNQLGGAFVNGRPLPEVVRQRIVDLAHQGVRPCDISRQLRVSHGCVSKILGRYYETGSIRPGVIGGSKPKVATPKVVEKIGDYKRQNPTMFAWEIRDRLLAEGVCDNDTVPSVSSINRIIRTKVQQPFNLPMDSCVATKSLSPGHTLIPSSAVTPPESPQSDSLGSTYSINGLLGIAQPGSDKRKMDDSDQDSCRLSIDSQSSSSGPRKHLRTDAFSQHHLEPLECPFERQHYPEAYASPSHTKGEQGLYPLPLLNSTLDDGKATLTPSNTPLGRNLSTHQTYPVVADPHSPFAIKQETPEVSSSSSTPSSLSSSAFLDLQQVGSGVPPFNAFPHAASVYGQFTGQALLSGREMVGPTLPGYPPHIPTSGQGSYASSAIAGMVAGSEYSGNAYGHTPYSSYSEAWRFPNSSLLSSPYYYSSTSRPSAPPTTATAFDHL

Sequence of Disintegrin and metalloproteinase domain-containing protein 17 (P78536 whole entry, the tested form may be a part): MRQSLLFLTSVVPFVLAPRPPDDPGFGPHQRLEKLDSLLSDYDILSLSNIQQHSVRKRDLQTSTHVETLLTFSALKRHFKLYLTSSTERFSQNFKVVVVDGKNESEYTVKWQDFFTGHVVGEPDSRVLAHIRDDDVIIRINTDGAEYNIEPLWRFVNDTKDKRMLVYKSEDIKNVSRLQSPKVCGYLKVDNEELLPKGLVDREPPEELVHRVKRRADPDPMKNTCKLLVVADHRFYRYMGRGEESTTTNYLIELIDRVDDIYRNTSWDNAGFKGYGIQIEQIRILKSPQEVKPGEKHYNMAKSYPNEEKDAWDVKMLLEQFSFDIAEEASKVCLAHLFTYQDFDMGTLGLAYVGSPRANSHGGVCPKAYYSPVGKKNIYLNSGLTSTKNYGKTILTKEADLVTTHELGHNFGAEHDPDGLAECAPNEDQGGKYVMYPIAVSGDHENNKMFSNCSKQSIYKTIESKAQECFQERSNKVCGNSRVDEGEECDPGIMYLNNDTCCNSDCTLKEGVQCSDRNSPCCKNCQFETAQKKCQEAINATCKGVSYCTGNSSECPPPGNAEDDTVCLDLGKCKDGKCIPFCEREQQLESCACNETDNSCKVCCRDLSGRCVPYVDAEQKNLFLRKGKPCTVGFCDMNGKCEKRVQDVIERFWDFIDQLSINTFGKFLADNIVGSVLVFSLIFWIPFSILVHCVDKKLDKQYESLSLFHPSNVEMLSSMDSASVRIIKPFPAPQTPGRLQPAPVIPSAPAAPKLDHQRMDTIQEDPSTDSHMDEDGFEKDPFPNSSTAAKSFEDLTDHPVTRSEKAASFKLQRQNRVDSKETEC
Sequence of Mitogen-activated protein kinase 10 (P53779 whole entry): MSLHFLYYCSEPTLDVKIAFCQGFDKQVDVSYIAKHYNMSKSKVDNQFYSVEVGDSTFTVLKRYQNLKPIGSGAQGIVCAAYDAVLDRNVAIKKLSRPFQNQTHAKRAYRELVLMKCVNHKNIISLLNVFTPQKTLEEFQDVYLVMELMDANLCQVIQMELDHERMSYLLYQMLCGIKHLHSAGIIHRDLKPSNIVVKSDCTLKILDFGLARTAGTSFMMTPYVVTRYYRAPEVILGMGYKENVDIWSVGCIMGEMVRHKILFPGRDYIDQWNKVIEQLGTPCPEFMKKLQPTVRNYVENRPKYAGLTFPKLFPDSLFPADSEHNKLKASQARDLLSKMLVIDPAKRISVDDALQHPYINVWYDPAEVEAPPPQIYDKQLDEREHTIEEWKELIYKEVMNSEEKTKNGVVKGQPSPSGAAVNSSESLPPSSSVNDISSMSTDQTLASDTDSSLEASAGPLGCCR
Sequence of Peroxisome proliferator-activated receptor gamma/Nuclear receptor coactivator 1 (P37231 whole entry): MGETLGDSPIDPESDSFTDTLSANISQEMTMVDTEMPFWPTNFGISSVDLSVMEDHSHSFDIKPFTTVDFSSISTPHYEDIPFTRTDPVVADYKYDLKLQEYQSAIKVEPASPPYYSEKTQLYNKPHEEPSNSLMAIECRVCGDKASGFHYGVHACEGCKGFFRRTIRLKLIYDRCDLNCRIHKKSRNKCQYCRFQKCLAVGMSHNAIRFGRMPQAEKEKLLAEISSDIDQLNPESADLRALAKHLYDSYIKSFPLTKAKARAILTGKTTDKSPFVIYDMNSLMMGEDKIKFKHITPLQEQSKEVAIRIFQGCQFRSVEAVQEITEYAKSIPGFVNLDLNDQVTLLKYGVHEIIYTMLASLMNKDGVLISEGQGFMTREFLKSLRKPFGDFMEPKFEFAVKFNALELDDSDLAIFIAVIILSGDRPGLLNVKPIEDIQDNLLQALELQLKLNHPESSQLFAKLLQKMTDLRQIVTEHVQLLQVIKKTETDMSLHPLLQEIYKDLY
Sequence of Peroxisome proliferator-activated receptor gamma/Nuclear receptor coactivator 1 (Q15788 whole entry, further chain): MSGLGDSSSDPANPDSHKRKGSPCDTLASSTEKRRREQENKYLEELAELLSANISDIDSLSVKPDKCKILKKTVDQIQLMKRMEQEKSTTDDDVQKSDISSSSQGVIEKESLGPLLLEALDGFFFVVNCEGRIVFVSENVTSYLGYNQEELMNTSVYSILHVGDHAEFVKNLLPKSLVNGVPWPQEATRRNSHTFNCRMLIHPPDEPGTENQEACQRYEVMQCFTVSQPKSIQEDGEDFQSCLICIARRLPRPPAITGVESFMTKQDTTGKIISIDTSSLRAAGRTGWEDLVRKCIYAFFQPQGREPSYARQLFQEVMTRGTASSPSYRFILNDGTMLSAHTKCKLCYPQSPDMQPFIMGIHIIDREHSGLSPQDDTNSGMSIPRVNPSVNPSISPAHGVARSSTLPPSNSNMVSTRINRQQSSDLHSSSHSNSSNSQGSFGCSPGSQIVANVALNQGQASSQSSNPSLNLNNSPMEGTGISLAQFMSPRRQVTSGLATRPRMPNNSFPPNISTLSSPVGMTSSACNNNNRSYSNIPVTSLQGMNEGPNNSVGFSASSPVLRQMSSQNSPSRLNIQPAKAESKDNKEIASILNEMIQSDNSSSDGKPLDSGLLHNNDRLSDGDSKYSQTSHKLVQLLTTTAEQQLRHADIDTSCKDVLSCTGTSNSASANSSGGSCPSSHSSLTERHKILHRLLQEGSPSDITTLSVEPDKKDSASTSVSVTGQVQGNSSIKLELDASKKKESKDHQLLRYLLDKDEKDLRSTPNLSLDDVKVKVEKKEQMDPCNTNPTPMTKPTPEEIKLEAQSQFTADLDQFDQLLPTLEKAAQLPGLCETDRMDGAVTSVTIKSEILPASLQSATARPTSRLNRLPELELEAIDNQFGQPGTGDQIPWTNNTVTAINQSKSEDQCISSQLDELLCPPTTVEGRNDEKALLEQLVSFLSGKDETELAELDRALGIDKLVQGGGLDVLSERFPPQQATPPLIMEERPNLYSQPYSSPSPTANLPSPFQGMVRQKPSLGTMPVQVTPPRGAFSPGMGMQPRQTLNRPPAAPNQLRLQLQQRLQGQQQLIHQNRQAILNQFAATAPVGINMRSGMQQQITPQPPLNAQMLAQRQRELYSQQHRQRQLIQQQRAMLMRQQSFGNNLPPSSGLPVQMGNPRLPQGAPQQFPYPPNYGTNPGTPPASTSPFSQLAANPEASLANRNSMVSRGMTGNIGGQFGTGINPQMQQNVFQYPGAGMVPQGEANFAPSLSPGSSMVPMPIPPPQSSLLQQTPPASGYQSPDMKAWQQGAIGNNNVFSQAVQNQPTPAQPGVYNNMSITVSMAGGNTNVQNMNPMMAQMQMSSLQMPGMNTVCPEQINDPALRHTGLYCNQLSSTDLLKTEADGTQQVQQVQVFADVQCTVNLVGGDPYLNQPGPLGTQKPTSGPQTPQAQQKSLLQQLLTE

IC50 [2]: > 69.5 µM (inactive)
SMILES: Cc1ccc(S(=O)(=O)N2CCCCC2)cc1NC(=O)CNc1ccc(C(F)(F)F)cc1
IC50 [1]: 8.89 µM (active)

EC50 [3]: > 79.4 µM (not active) | EC50 [4]: > 79.4 µM (not active) | EC50 [5]: > 79.4 µM (inactive) | IC50 [6]: 15.5 µM (not active)
SMILES: Cc1cn(S(=O)(=O)c2ccc(Br)c3ccccc23)cn1

SMILES: C[C@H](CO)N1C[C@H](C)[C@@H](CN(C)C(=O)c2cccc(F)c2)Oc2ncc(-c3ccccc3)cc2C1=O
AC50 [7]: > 52 µM (inactive)

SMILES: COc1ccccc1C#Cc1ccc([C@H]2[C@@H](C#N)N(C(=O)C3CCCC3)[C@@H]2CO)cc1
AC50 [8]: > 39 µM (inactive) | AC50 [9]: 5.1 µM (active)

SMILES: O=C(Nc1ccc2c(c1)OCCO2)c1ccc(Cl)cc1Cl
AC50 [10]: > 52 µM (inactive) | AC50 [11]: > 52 µM (inactive) | AC50 [12]: 11.6 µM (active) | AC50 [13]: 15.2 µM (active)

SMILES: COc1ccc(NC(=O)Nc2cccc3c2O[C@H](CN(C)C(=O)Nc2cccc4ccccc24)[C@H](C)CN([C@@H](C)CO)C3=O)cc1
AC50 [14]: 0.971 µM (active) | AC50 [9]: 2.54 µM (active) | AC50 [15]: 1.64 µM (active) | AC50 [16]: > 100 µM (inactive) | AC50 [17]: 0.547 µM (active)

SMILES: CC(C)N1C[C@H](C)[C@@H](CN(C)Cc2ccc(Oc3ccccc3)cc2)Oc2c(cccc2-c2nn[nH]n2)C1=O
AC50 [18]: 7.34 µM (active)

SMILES: CC(C)(O)C#Cc1cccc(-c2nc(C(=O)NCc3ccc4c(c3)OCO4)cc3c2[C@H](CCO)N([S+]([O-])C(C)(C)C)C3)c1 (stereo partly specified)
AC50 [18]: 2.44 µM (active)

SMILES: COc1cccc(CN(C)C(=O)c2ccc(OCC(=O)Nc3cccc(C(F)(F)F)c3)c(OC)c2)c1
AC50 [19]: 3.38 µM (active) | IC50 [20]: 4.57 µM (active) | IC50 [21]: > 80 µM (inactive) | AC50 [22]: 4.93 µM (active) | AC50 [23]: 14.4 µM (active)

SMILES: Cc1cccc(C2(c3cccc(C)c3)OC(=O)c3ccccc32)c1
IC50 [1]: > 23.2 µM (inactive) | IC50 [2]: > 69.5 µM (inactive) | AC50 (INS1): 17.7 µM (active)

SMILES: C[C@H]1CN([C@@H](C)CO)C(=O)c2c(c3ccccc3n2C)-c2ccccc2CO[C@@H]1CN(C)S(=O)(=O)c1cccc(F)c1
AC50 [24]: 37.3 µM (active) | AC50 [9]: 4.88 µM (active) | AC50 (Paired box protein Pax-8): 11.6 µM (active)
